Data as given in patent US7524962B2, “Biphenyl compounds useful as muscarinic receptor antagonists” (Theravance, Inc., priority 2004, dated 2009).

Target: T1, hM3 muscarinic receptor subtype (Homo sapiens, UniProt P20309)
T1 construct: expressed in transfected cells; crude membranes
Assay: Radioligand binding assay ([3H]-NMS displacement), CHO cell membranes
Details: [3H]-NMS at 1 nM, CHO cell membranes expressing hM3, 60 minutes at 37° C.; read-out: Ki value for the M3 muscarinic receptor subtype
Description: A. Membrane Preparation from Cells Expressing hM1, hM2, hM3 and hM4 Muscarinic Receptor Subtypes
CHO (Chinese hamster ovary) cell lines stably expressing cloned human hM1, hM2, hM3 and hM4 muscarinic receptor subtypes, respectively, were grown to near confluency in medium consisting of HAM's F-12 supplemented with 10% FBS (Fetal Bovine Serum) and 250 μg/mL Geneticin. The cells were grown in a 5% CO2, 37° C. incubator and lifted with 2 mM EDTA in dPBS. Cells were collected by 5 minute centrifugation at 650×g, and cell pellets were either stored frozen at −80° C. or membranes were prepared immediately. […] The protein concentration of the membrane suspension was determined by the method described in Lowry, O. et al., Journal of Biochemistry 193:265 (1951). […]
Radioligand binding assays were performed in 96-well microtiter plates in a total assay volume of 100 μL. […] Filter plates were rinsed three times with wash buffer (10 mM HEPES) to remove unbound radioactivity. […] The plates were then counted in a PerkinElmer Topcount liquid scintillation counter (PerkinElmer Inc., Wellesley, Mass.). Binding data were analyzed by nonlinear regression analysis with the GraphPad Prism Software package (GraphPad Software, Inc., San Diego, Calif.) using the one-site competition model. […]

T1 sequence (P20309 whole entry): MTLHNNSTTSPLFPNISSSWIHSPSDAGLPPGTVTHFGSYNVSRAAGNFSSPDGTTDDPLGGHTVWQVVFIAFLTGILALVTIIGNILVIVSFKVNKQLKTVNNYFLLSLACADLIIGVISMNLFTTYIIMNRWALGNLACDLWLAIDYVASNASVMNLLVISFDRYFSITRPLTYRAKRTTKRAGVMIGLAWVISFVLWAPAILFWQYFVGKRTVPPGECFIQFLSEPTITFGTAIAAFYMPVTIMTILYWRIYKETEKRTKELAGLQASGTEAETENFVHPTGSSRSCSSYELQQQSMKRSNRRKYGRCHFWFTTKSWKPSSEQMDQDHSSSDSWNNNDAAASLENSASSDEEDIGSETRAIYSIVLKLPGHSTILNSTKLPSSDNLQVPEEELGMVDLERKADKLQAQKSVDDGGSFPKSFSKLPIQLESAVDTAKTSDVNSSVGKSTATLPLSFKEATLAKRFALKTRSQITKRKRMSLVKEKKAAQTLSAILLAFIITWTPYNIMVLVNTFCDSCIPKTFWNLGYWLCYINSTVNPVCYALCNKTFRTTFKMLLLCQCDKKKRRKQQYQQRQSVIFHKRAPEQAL

## NC(=O)C1CCN(CCCCCNC(=O)CCN2CCC(OC(=O)Nc3ccccc3-c3ccccc3)CC2)CC1 [Example 1, Biphenyl-2-ylcarbamic Acid 1-{2-[5-(4-Carbamoylpiperidin-1-yl)pentylcarbamoyl]ethyl}piperidin-4-yl Ester]
  Ki: < 5 nM
